Measurements: patent US10906909B2, “Treatment of cognitive and mood symptoms in neurodegenerative and neuropsychiatric disorders with ALPHA5-containing GABAA receptor agonists” (UWM Research Foundation, Inc., priority 2016, dated 2021)

Test system: rats
Assay: Morris water maze
Assay type: in vivo, rat
Protocol: The potential of MP-III-022 to affect cognitive performance of rats was assessed in 2 well-validated behavioral models. First, Morris water maze experiments were performed in a 2 m diameter circular pool filled to a height of 30 cm with water at 22±1° C. The escape platform (15 cm×10 cm) was submerged 2 cm below the water surface. All experimental details were as described in Savic et al. (Int. J. Neuropsychopharmacol. 2009, 12, 1179-1193). On each of the five consecutive days rats were given one swimming block, consisting of four trials. For each trial the rat was placed in the water at one of four pseudo-randomly determined starting positions. Once the rat has found and mounted the escape platform it was permitted to remain on the platform for 15 s. […] During the acquisition phase, treatments were applied once daily before the swimming block. On the sixth day, rats were given a treatment-free probe test (60 s) without the platform. The probe test was started from the novel, most distant location. Dependent variables chosen for tracking during the acquisition trials were: escape latency (s), total distance traveled (m), path efficiency (the ratio of the shortest possible path length to actual path length), % of distance swam in the peripheral annulus and mean speed (m/s). The selected parameters in the probe test were the distance swam in the target zone […] and % of the distance swam in the peripheral annulus. We tested the effects of 1, 2.5 and 10 mg/kg MP-III-022 and 2 mg/kg diazepam as control drug. The doses of MP-III-022 were selected so that they elicit a mild, moderate and strong positive modulation of α5GABAARs, respectively, in accordance with the analysis of thorough pharmacokinetic and electrophysiological data presented in Stamenic et al. (Eur. J. Pharmacol. 2016, 791, 433-443). The data from the acquisition days in the Morris water maze were averaged for each rat (total data/total number of trials per day) and analyzed using two-way ANOVA with repeated measures (factors: Treatment and Days) with Days as the repeated measure. In the case of significant interaction, separate one-way ANOVAs were conducted to assess the influence of treatment within individual levels of factor Days. The data from the probe test were assessed using one-way ANOVA.

Q: How did the “spatial learning and memory (water maze, probe test)” value (1 mg/kg) turn out when `C#Cc1ccc2c(c1)C(c1ccccc1F)=N[C@H](C)c1c(C(=O)NC)ncn1-2` [MP-III-022] was run?
A: significant improvement in spatial learning and memory processes

Q: And the “escape latency, distance, distance in peripheral ring, path efficiency (acquisition)” value (1 mg/kg vs 2 mg/kg diazepam and 10 mg/kg MP-III-022 groups)?
A: shorter escape latencies, shorter distances, swam less distance in the peripheral ring and had higher path efficiencies

Q: What about the “path efficiency on Day II” value (1 mg/kg, Day II of acquisition) of the same compound?
A: higher path efficiencies compared to the control and all other treatment groups

Q: And the “spatial learning during acquisition in the water maze” value (MP-III-022 10 mg/kg once daily before swimming block)?
A: spatial learning incapacitation indistinguishable from that induced by diazepam 2 mg/kg

Q: What about the “spatial learning and memory (water maze, probe test)” value (high doses) of the same compound?
A: mimic the cognitive disruption effect of diazepam
